Entries after “also recorded” stand apart in the source; their conditions may differ. Read-outs that look alike come from different tables or passages of the source.
Tests used:
[1] = test system: dopamine transporter (DAT); assay: Immunolabeling of striatal dopamine transporter (DAT), 3-month study; format: in vivo, mouse; conditions: for DAT immunolabeling in dorsal striatum, mean: 3 months
Text: (§1) A transgenic mouse model of Parkinson’s disease overexpressing human wild-type ASYN under the murine Thy-1 promoter on a mixed C57Bl/6 background was used in the present studies (commonly referred to Line 61)[49]. The Line 61 transgenic mouse model of Parkinson’s disease develops extensive accumulation of ASYN in areas relevant to Parkinson’s disease[49]–[51], neurodegeneration (as evidenced by loss of tyrosine hydroxylase[52],[53] and dopamine transporter immunoreactivity[18] in the striatum), inflammation, and both motor and non-motor functional deficits. Multiple cohorts of mice were transferred from the University of California, San Diego to a Neuropore-funded AAALAC-accredited vivarium facility per a laboratory service agreement between Neuropore Therapies, Inc. and the laboratory of Dr. Eliezer Masliah under institutional animal care and use committee (IACUC) Protocol S02221. All in vivo testing was conducted by Neuropore personnel under Explora Biosciences animal care and use protocol (ACUP) number E15-016-2. Three-month-old male transgenic and age-matched non-transgenic littermate control mice were used and housed up to 5 per cage. Animals received free access to food and water prior to the experiment. The vivarium ambient room temperature was monitored daily and kept within a range of 68–72 degrees Fahrenheit. Animals were kept on a 12:12 diurnal light cycle, with lights on at 0600.
(§2) Minzasolmin was dissolved in a vehicle solution consisting of 40% Captisol (CyDex Pharmaceuticals, Inc.; Kansas, USA) in sterile water and administered at a volume of 0.1 ml/20 g of body weight. Animals received a Monday–Friday daily intraperitoneal injection of vehicle, or 1 or 5 mg/kg minzasolmin for approximately 90 days. Animals received treatment up to and including a final injection 1 h prior to euthanasia. All study solutions were blind coded and experimenters were blinded to genotype and treatment group assignments for the duration of the study, ex vivo evaluations (i.e., neuropathology sample processing and imaging, videotape scoring) and through penultimate data analyses (i.e., data quality control with documented exclusions prior to unblinding; unblinding required for a priori pairwise comparisons).
All subjects were euthanized within 1 h of the last treatment and brain and blood were collected. Tissue processing and imaging methods were conducted as described previously[17],[18],[52] and performed under a lab service agreement between UCSD and Neuropore Therapies. All samples were blind coded to genotype and treatment group throughout immune-histological processing and imaging. The right hemibrain was post-fixed in phosphate-buffered 4% paraformaldehyde (pH 7.4) at 4 °C for 48 and then serially sectioned into […] thick […] sections using a vibratome. Sections were free-floated and incubated overnight at 4 °C with primary antibodies. To confirm the specificity of primary antibodies, control experiments were performed in which sections were incubated overnight in the absence of primary antibody, pre-immune serum, or primary antibody pre-adsorbed for 48 h with 20-fold excess of the corresponding peptide. Tissue collection, processing, and imaging methods were conducted as described previously. […] Immunolabeling was evaluated as a corrected optical density across a field of view. […]

[2] = parameters: method as in PMID 35959805; conditions: normal healthy volunteers and patients with Parkinson's disease; cited from earlier work
[3] = Mouse pharmacokinetics after single intraperitoneal dose (plasma and brain); format: in vivo; conditions: for AUC last / Cmax / AUC(0-t): mean ± SEM; for Kp / Tmax / half-life / Cmax / AUC(0-inf) / AUC(0-t): male, C57BL/6, mouse, ip; for Kp: brain and plasma, from AUCinf, read-out: brain/plasma exposure (AUC) ratio
Procedure: Characterization of exposure profile and brain distribution of minzasolmin in male C57BL/6 mice was performed at UCB BioPharma SPRL (Braine l’Alleud, Belgium). All the procedures were approved by the UCB Ethics Committee for Animal Experimentation and conducted in compliance with the Helsinki declaration and the guidelines of the European Community Council directive 86/609/EEC. UCB BioPharma is fully accredited by the Association for Assessment and Accreditation of Laboratory Animal Care (AAALAC). Male C57BL/6 mice (8 weeks of age, 20–27 g), purchased from Charles River Laboratories (Toulouse, France), were dosed intraperitoneally with 1 or 5 mg/kg of minzasolmin (10 mL/kg of 40% w/v Captisol® in water). Three mice were used per dose and per time of sampling (0.25, 0.5, 1, 2.5, and 6 h). Mice were anaesthetized with isofluorane and blood was collected from the vena cava into K2EDTA tubes. Animals were then perfused through the left ventricle with 20 mL of heparinized NaCl 0.9% (20 UI/mL), rate flow 20 mL/min, 1 min perfusion time. At the end of the procedure mice were sacrificed by cervical dislocation. Brain samples were weighed and collected in cold glass vials and stored at −20 °C, until bioanalysis. All blood samples were thoroughly but gently mixed following collection and placed directly on ice then centrifuged at 4 °C, 3000 g for 15 min within 30 min after sampling. The collected plasma was stored at −20 °C, until bioanalysis. Samples were analyzed by liquid chromatography-tandem mass spectrometry (LC-MS/MS). Results of minzasolmin concentrations in plasma and brain are reported in ng/mL and ng/g respectively. Pharmacokinetic profiling was performed by non-compartmental analysis, using Phoenix WinNonlin v6.4 software (Pharsight Inc., St. Louis, MO). All computations utilized the sparse sampling method according to the experimental composite sampling regimen.

[4] = test system: total ASYN; assay: Immunohistochemical evaluation of total ASYN in brain sections, 3-month study; format: in vivo, mouse; conditions: for change in total ASYN immunolabeling vs vehicle-treated Line 61 transgenic mice: hippocampus and striatum (P < 0.0001); for total ASYN immunolabeling, mean: Line 61 tg, 3 months
Text: as §1, §2
All subjects were euthanized within 1 h of the last treatment and brain and blood were collected. Tissue processing and imaging methods were conducted as described previously[17],[18],[52] and performed under a lab service agreement between UCSD and Neuropore Therapies. All samples were blind coded to genotype and treatment group throughout immune-histological processing and imaging. The right hemibrain was post-fixed in phosphate-buffered 4% paraformaldehyde (pH 7.4) at 4 °C for 48 and then serially sectioned into […] thick […] sections using a vibratome. Sections were free-floated and incubated overnight at 4 °C with primary antibodies. To confirm the specificity of primary antibodies, control experiments were performed in which sections were incubated overnight in the absence of primary antibody, pre-immune serum, or primary antibody pre-adsorbed for 48 h with 20-fold excess of the corresponding peptide. Tissue collection, processing, and imaging methods were conducted as described previously. Briefly, the right hemibrain was post-fixed in phosphate-buffered 4% paraformaldehyde (pH 7.4) at 4 °C for 48 h, and then serially sectioned into 40 µm thick coronal sections using a vibratome. Sections were free-floated and incubated overnight at 4 °C with primary antibodies. To confirm the specificity of primary antibodies, control experiments were performed in which sections were incubated overnight in the absence of primary antibody (data not shown). Immunolabeled sections were imaged with a Zeiss 63× (N.A. 1.4) objective on an Axiovert 35 microscope (Zeiss, Germany). Immunolabeling was evaluated as a corrected optical density across a field of view. […]

[5] = brain, 1 mg/kg single i.p., C57/Bl6 mice
[6] = brain, 5 mg/kg single i.p., C57/Bl6 mice
[7] = plasma, 1 mg/kg single i.p., C57/Bl6 mice
[8] = plasma, 5 mg/kg single i.p., C57/Bl6 mice

Structure (SMILES): CCCC[C@H](Cc1c[nH]c2ccccc12)NC(=O)c1cnc(N2CCN(C)CC2)s1 [minzasolmin]
- change in striatal DAT immunolabeling vs vehicle-treated ASYN transgenic controls ([1]; 1 mg/kg, P < 0.05): statistically significant increases; also recorded: statistically significant normalizations
- change in striatal DAT immunolabeling vs vehicle-treated ASYN transgenic controls ([1]; 5 mg/kg, P < 0.0001): statistically significant increases; also recorded: statistically significant normalizations
- DAT immunolabeling in dorsal striatum, mean ([1]; Line 61 tg/1 mg/kg (first group of that name), Line 61 tg/Vehicle 211.2, Non-tg/Vehicle 292.1, adjusted P 0.0117): 255.3
- DAT immunolabeling in dorsal striatum, mean ([1]; Line 61 tg/1 mg/kg as printed (second group of that name), Line 61 tg/Vehicle 211.2, adjusted P <0.0001): 280.1
- dose effect on striatal DAT levels, 5 mg/kg compared to 1 mg/kg (towards a greater increase) ([1]; P = 0.0754, unpaired two tailed t test): statistical trend
- safety and pharmacokinetic profiles [2]: favorable
- AUC inf [3, 5]: 99.0 ng·h/g
- AUC last [3, 5]: 93.9 ± 4.2 ng·h/g
- AUC inf [3, 6]: 422 ng·h/g
- AUC last [3, 6]: 394 ± 21 ng·h/g
- time of highest brain levels after dosing ([3]; brain, 1 and 5 mg/kg i.p.): 0.5 h
- Kp ([3]; 1 mg/kg i.p.): 0.32
- Kp ([3]; 5 mg/kg i.p.): 0.26
- Tmax ([3]; brain, 1 mg/kg, brain, 1 mg/kg single i.p., C57/Bl6 mice, read-out: T max): 30 min
- Tmax ([3]; brain, 5 mg/kg, brain, 5 mg/kg single i.p., C57/Bl6 mice, read-out: T max): 30 min
- half-life [3, 5]: 33.6 min
- Cmax [3, 5]: 76 ± 4 ng/g
- half-life [3, 6]: 36 min
- Cmax [3, 6]: 292 ± 30 ng/g
- AUC(0-inf) [3, 7]: 308 ng·h/mL
- half-life [3, 7]: 41.4 min
- AUC(0-t) [3, 7]: 307 ± 13 ng·h/mL
- Cmax [3, 7]: 332 ± 18 ng/mL
- AUC(0-inf) [3, 8]: 1650 ng·h/mL
- half-life [3, 8]: 49.8 min
- AUC(0-t) [3, 8]: 1640 ± 86 ng·h/mL
- Cmax [3, 8]: 1320 ± 124 ng/mL
- Tmax ([3]; plasma, 1 mg/kg, plasma, 1 mg/kg single i.p., C57/Bl6 mice, read-out: T max): 30 min
- Tmax ([3]; plasma, 5 mg/kg, plasma, 5 mg/kg single i.p., C57/Bl6 mice, read-out: T max): 15 min
- Tmax ([3]; plasma, 5 mg/kg, plasma, 1 and 5 mg/kg i.p., read-out: time of maximum plasma concentration after dosing): 15 to 30 min
- change in total ASYN immunolabeling vs vehicle-treated Line 61 transgenic mice ([4]; 1 mg/kg, cortex (P < 0.05)): statistically significant decreases; also recorded: statistically significant reductions
- change in total ASYN immunolabeling vs vehicle-treated Line 61 transgenic mice ([4]; 5 mg/kg, cortex): statistically significant decreases; also recorded: statistically significant reductions
- effect of dose on total ASYN, 5 mg/kg compared to 1 mg/kg ([4]; cortex (P < 0.05) and hippocampus (P < 0.01), unpaired two tailed t tests): greater reductions
- total ASYN immunolabeling, mean ([4]; cortex, 1 mg/kg, corrected optical density, Line 61 tg/Vehicle 352.8, adjusted P 0.0148): 282.1
- total ASYN immunolabeling, mean ([4]; cortex, 5 mg/kg, Line 61 tg/Vehicle 352.8, adjusted P <0.0001): 232.8
- total ASYN immunolabeling, mean ([4]; hippocampus, 1 mg/kg, Line 61 tg/Vehicle 392.9, adjusted P <0.0001): 286.7
- total ASYN immunolabeling, mean ([4]; hippocampus, 5 mg/kg, Line 61 tg/Vehicle 392.9, adjusted P <0.0001): 229.7
- effect of dose on total ASYN, 1 vs. 5 mg/kg ([4]; striatum): no statistically significant effect
- total ASYN immunolabeling, mean ([4]; striatum, 1 mg/kg, Line 61 tg/Vehicle 365.3, adjusted P <0.0001): 265.4
- total ASYN immunolabeling, mean ([4]; striatum, 5 mg/kg, Line 61 tg/Vehicle 365.3, adjusted P <0.0001): 245.5
